Results as given in PMC4102931 (Investigational new drugs, 2010).
Read-outs that look alike come from different tables or passages of the source. Marks after values point to notes of the source that are not given here.

Assays:
[1] = Chemotherapy pharmacokinetics alone; conditions: for AUC / Cmax: alone (cycle 1, day 1), geometric mean (CV%); for Change in the geometric mean chemotherapy pharmacokinetic parameters when given alone or in combination with cediranib: limited pharmacokinetic data
clinical = conditions: human, in vivo
[2] = human, in vivo
[3] = Steady-state pharmacokinetics of cediranib given with chemotherapy; type: in vivo, human; conditions: for Css,max / AUC: geometric mean (CV%); for AUC / Tmax: human, plasma, oral; for AUC: AUCss; for Tmax: median (range)
[4] = tested on: patients with a broad range of advanced solid tumors; conditions: cited from earlier work
advanced solid tumors = assay: Tumor response evaluation; type: in vivo, human
[5] = tested on: patients with advanced solid tumors; assay: Safety and tolerability: adverse events graded by NCI CTC version 3.0; type: in vivo, human
[6] = tested on: patients with advanced CRC; conditions: previous phase I study; cited from earlier work
[7] = tested on: patients with advanced solid tumors; assay: Dose-limiting toxicities and maximum tolerated dose; type: in vivo, human; conditions: for MTD of cediranib: once-daily oral
[8] = ref Trial 2171IL0001, cited from earlier work; for Tmax: median (range)
[9] = 20 mg, Arm 1 (with mFOLFOX6), cediranib 20 mg, n=5
[10] = 20 mg, Arm 3A (with irinotecan), cediranib 20 mg, n=5
[11] = 20 mg, Arm 3B (with irinotecan and cetuximab), cediranib 20 mg, n=3
[12] = 30 mg, Arm 2 (with docetaxel), cediranib 30 mg, n=8
[13] = all arms, cediranib with chemotherapy

With `CCc1c2c(nc3ccc(O)cc13)-c1cc3c(c(=O)n1C2)COC(=O)[C@]3(O)CC` [SN38] as the molecule, how does the AUC ([1]; Arm 3A) read?
The AUC was 595 (53.5) ng/mL•h.

What about the Cmax ([1]; Arm 3A) of the same molecule?
Its Cmax is 35.4 (50.1) ng/mL.

And the AUC ([1]; Arm 3B (with cetuximab))?
The AUC was 482 (22.3) ng/mL•h.

And the Cmax ([1]; Arm 3B (with cetuximab))?
Its Cmax is 29.1 (21.0) ng/mL.

What about the “Change in the geometric mean chemotherapy pharmacokinetic parameters when given alone or in combination with cediranib” value [1] of the same molecule?
The value was < 2 fold.

With `CCc1c2c(nc3ccc(OC(=O)N4CCC(N5CCCCC5)CC4)cc13)-c1cc3c(c(=O)n1C2)COC(=O)[C@]3(O)CC` [Irinotecan] as the molecule, how does the Cmax (clinical; Cmax) read?
The Cmax was 3290 ng/mL.

What about the Cmax [2] of the same molecule?
Its Cmax is 3040 (18.3) ng/mL.

For `O=C1[O][Pt]2([NH][C@@H]3CCCC[C@H]3[NH]2)[O]C1=O` [Oxaliplatin, reference compound], which “Change in the geometric mean chemotherapy pharmacokinetic parameters when given alone or in combination with cediranib” value [1] is on record?
Its value is < 2 fold.

What does the source list for `COc1cc2c(Oc3ccc4[nH]c(C)cc4c3F)ncnc2cc1OCCCN1CCCC1` [cediranib, Cediranib]?
Css,max ([3]; Arm 1 (with mFOLFOX6), cediranib 20 mg, n=5): 65.3 (86.2) ng/mL; Css,max ([3]; Arm 2 (with docetaxel), cediranib 30 mg, n=8): 62.5 (53.3) ng/mL; Css,max ([3]; Arm 3A (with irinotecan), cediranib 20 mg, n=5): 76.0 (57.6) ng/mL; Css,max ([3]; Arm 3B (with irinotecan and cetuximab), cediranib 20 mg, n=3): 50.9 (126) ng/mL; Css,max ([3]; Arm 4 (with pemetrexed), cediranib 30 mg, n=4): 74.9 (31.6) ng/mL; AUC [3, 9]: 986 ng·h/mL; AUC [3, 10]: 1010 ng·h/mL; AUC [3, 11]: 668 ng·h/mL; Tmax [3, 9]: 4 h; Tmax [3, 10]: 2.1 h; Tmax [3, 11]: 4 h; AUC [3, 12]: 1100 ng·h/mL; Tmax [3, 12]: 5 h; Doses at which cediranib monotherapy was generally well tolerated [4]: ≤ 45 mg/day; Partial tumor responses, all arms (advanced solid tumors; 46 patients with efficacy data, 35 evaluable by RECIST): four; Median duration of treatment of the four patients with partial response (advanced solid tumors; range 154-384): 319 days; Serious adverse events of hypertension ([5]; across all arms): Three; CTC grade 1 hypertension ([5]; across all arms, n=59): 21 patients; CTC grade 3 hypertension ([5]; across all arms, n=59): three; CTC grade 3 leukopenia ([5]; across all arms, n=59): nine; CTC grade 3 neutropenia ([5]; across all arms, n=59): 11 patients; CTC grade 3 or 4 diarrhea of any causality ([5]; across all arms, n=59): 12 patients; CTC grade 3 or 4 fatigue of any causality ([5]; across all arms, n=59): 16 patients; CTC grade 3 or 4 leukopenia of any causality ([5]; across all arms, n=59): 13 patients; CTC grade 3 or 4 neutropenia of any causality ([5]; across all arms, n=59): 19 patients; CTC grade 4 leukopenia ([5]; across all arms, n=59): four; CTC grade 4 neutropenia ([5]; across all arms, n=59): 8 patients; Serious adverse event: fatigue ([5]; across all arms, number (%)): 16 (27%) patients; Serious adverse event: leukopenia ([5]; across all arms, number (%)): 12 (20%) patients; Serious adverse event: neutropenia ([5]; across all arms, number (%)): 18 (30%) patients; Patients discontinued due to diarrhea ([5]; across the study): three; Patients discontinued due to fatigue ([5]; across the study): two; Abdominal pain, any grade (%), Total (n=59) [5, 13]: 16 (27%); Alopecia, any grade (%), Total (n=59) [5, 13]: 15 (25%); Anorexia, any grade (%), Total (n=59) [5, 13]: 25 (42%); Decreased weight, any grade (%), Total (n=59) [5, 13]: 21 (36%); Dehydration, any grade (%), Total (n=59) [5, 13]: 19 (32%); Dyspnea, any grade (%), Total (n=59) [5, 13]: 18 (31%); Headache, any grade (%), Total (n=59) [5, 13]: 16 (27%); Leukopenia, any grade (%), Total (n=59) [5, 13]: 20 (34%); Nausea, any grade (%), Total (n=59) [5, 13]: 36 (61%); Neutropenia, any grade (%), Total (n=59) [5, 13]: 27 (46%); Vomiting, any grade (%), Total (n=59) [5, 13]: 30 (51%); Adverse events of proteinuria (all CTC grade 1 or 2) ([5]; all study arms except arm 4): Seven; Increases in blood TSH above the normal range (> 5 mU/L) ([5]; overall): 26 patients; Neutrophil counts of less than 1×10^9/L ([5]; overall, n=59): Fourteen; Patients discontinuing due to adverse events ([5]; total, number (%)): 12 (20%) patients; Recommended phase II dose in combination with mFOLFOX6 [6]: 30 mg/day; MTD of cediranib ([7]; in combination with docetaxel (arm 2)): 30 mg; MTD of cediranib according to the protocol definition ([7]; in combination with irinotecan and cetuximab): 20 mg; MTD of cediranib ([7]; in combination with irinotecan): 20 mg; MTD of cediranib ([7]; in combination with mFOLFOX6): 20 mg; MTD of cediranib ([7]; in combination with pemetrexed (arm 4)): 30 mg; Css,max ([8]; single-agent cediranib 20 mg, multiple once-daily oral doses, n=11, geometric mean (CV%)): 66.6 (52.9) ng/mL; AUCss ([8]; single-agent cediranib 20 mg, n=11, geometric mean (CV%)): 774 (51.6) ng/mL•h; Tmax ([8]; single-agent cediranib 20 mg, n=11): 3.0 (2.0, 6.4) h; AUCss ([8]; single-agent cediranib 30 mg, n=12, geometric mean (CV%)): 741 (48.7) ng/mL•h; Tmax ([8]; single-agent cediranib 30 mg, n=12): 2.1 (1.0, 4.0) h

For `O=c1[nH]cc(F)c(=O)[nH]1` [5-FU], which Cmax [2] is on record?
The Cmax was 544 (72.9) ng/mL.

For `CC(=O)O[C@@]12CO[C@@H]1C[C@H](O)[C@@]1(C)C(=O)[C@H](O)C3=C(C)[C@@H](OC(=O)[C@H](O)[C@@H](NC(=O)OC(C)(C)C)c4ccccc4)C[C@@](O)([C@@H](OC(=O)c4ccccc4)[C@H]21)C3(C)C` [Docetaxel], which AUC (clinical; AUC) is on record?
The AUC was 3770 ng·h/mL.

What does the source list for `Nc1nc2[nH]cc(CCc3ccc(C(=O)N[C@@H](CCC(=O)O)C(=O)O)cc3)c2c(=O)[nH]1` [Pemetrexed]?
AUC [2]: 295 (37.7)^e u.g.h/mL; Cmax [2]: 180 (14.2)^e u.g/mL
